Where “and” joins values, the source holds several entries; their conditions need not be identical. Equal values may be shown once. Entries after “also recorded” stand apart in the source; their conditions may differ.

Six compounds from publication PMC8791944, “GLUT3 inhibitor discovery through in silico ligand screening and in vivo validation in eukaryotic expression systems” (Scientific Reports, 2022) can be followed below.

The target of the test is T1, GLUT4 (Homo sapiens, UniProt P14672).
T1 construct: expressed in transfected cells; host or cells: Saccharomyces cerevisiae hxt0 strain SDY.022 (EBY.S7 Δerg4)
T1 sequence (P14672 1-509): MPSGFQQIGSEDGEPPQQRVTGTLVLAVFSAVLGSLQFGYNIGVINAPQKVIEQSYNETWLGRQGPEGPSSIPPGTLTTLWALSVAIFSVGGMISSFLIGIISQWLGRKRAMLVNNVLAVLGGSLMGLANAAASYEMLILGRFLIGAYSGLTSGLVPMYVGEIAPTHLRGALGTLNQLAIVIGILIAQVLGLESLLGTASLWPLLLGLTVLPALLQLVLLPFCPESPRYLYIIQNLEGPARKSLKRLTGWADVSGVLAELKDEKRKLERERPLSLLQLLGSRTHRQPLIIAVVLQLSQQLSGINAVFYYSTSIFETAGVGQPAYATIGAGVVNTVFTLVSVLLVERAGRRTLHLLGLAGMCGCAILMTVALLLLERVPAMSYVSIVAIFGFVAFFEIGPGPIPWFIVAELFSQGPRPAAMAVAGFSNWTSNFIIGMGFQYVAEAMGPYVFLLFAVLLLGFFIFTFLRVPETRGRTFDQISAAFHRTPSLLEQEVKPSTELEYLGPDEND
The test can be described thus: Glucose transport assay, GLUT4 expressed in hxt^0 yeast cells SDY.022. Conditions: for IC50: hxt^0 yeast cells, 5 mM glucose, read-out: IC50 for GLUT4 transport inhibition; for Potency for GLUT4 relative to GLUT3 (higher for GLUT4): IC50 GLUT4 versus IC50 GLUT3. The format is cell-based. From the text: The most studied GLUTs are Class 1 GLUTs (GLUT1-4) and a Class 2 GLUT, GLUT5 (a fructose-only transporter). GLUT3 sequence homology and identity is 79% and 64%, 71% and 52%, 74% and 57%, and 60% and 38% with GLUT1, GLUT2, GLUT4, and GLUT5, respectively. The hxt^0 yeast cell systems expressing functional GLUT1-4[65],[69] and GLUT5[66] allow us to determine the in vivo transport activity (substrate uptake by a GLUT into whole cells) for individual GLUTs and establish GLUT3 inhibitor selectivity for these transporters. The transport assay was performed as described for GLUT3, but at the substrate concentrations that correspond to the KM for each GLUT (i.e., 5 mM glucose for GLUT1 and GLUT4[65], 15 mM glucose for GLUT2∆loopS_Q455R[63], and 10 mM fructose for GLUT5S72Y[66]).
The transport activity was assayed as the substrate uptake in hexose transporter-deficient yeast cells expressing functional GLUT1[65], GLUT2[69], GLUT4[65], or GLUT5[66]. Substrate final concentration in the assay matched the corresponding substrate KM and was 5 mM glucose for GLUT1 and GLUT4, 15 mM glucose for GLUT2∆loopS_Q455R, and 10 mM fructose for GLUT5S72Y. Transport assay was initiated by the addition of C^14-labeled substrate and stopped after 10 min (see “Materials and methods” for details). […] Standard deviations for experimental points come from at least three independent measurements.
The plasmids containing functional constructs of GLUT1-5 were transformed in the corresponding hxt^0 strains[65],[66],[73] (EBY.VW4000 for GLUT5S72Y, EBY.S7 for GLUT1, GLUT2∆loopS_Q455R, GLUT3 and GLUT3S66Y, and SDY.022 for GLUT4) and grown on 2% (w/v) agar plates of the respective media supplemented with 1% (w/v) maltose. An initial culture of ~ 10 ml was started with a few colonies and grown for 2–3 days if the media was SC-uracil with 1% (w/v) maltose (GLUT1, GLUT3, GLUT4) or 1–2 days if the media was YEP with 1% (w/v) maltose and 100 µg/ml geneticin G418 (GLUT2∆loopS_Q455R and GLUT5S72Y). Cells were washed once in the corresponding media in which maltose was substituted with 0.1–2% hexose substrate for the expressing GLUT (i.e., SC-uracil, 2% (w/v) glucose for GLUT1; SC-uracil, 0.2% (w/v/) glucose for GLUT3 and GLUT4; YEP, 0.2% (w/v) glucose, 100 µg/ml geneticin G418 for GLUT2∆loopS_Q455R, and YEP, 2% (w/v) fructose for GLUT5 S72Y). Then, cells were transferred in the same media so that OD600nm ~ 0.5 and grown further for 1–2 days.
For transport activity assay, cells in the hexose media were centrifuged (1000×g, 5 min, room temperature), washed once with PBS buffer (10 mM Na2HPO4, 1.8 mM KH2PO4, 2.7 mM KCl, 137 mM NaCl, pH 7.4), and resuspended in PBS buffer at an OD600nm ~ 10; each assay contained 100 µl of this cell solution. Transport activity assay was started by adding C^14-hexose at a substrate concentration corresponding to the respective KM (5 mM glucose for GLUT1 or GLUT4, 3 mM glucose for GLUT3 or 1.5 mM glucose for GLUT3S66Y, 15 mM glucose for GLUT2∆loopS_Q455R, and 10 mM fructose for GLUT5S72Y); for determining the glucose KM in GLUT3 and GLUT3S66Y, substrate concentrations were varied accordingly. […] The filtration membranes were transferred into scintillation vials with 10 ml of Scintillation Solution (BioSafeII; Research Products International, Mount Prospect, IL, USA), and vortexed briefly. The radioactivity was determined with a scintillation counter (Tri-carb 2900TR, Perkin Elmer, USA).

For orientation: IC50 means the point on the concentration scale where inhibition reaches its midpoint. Regarding `COc1ccccc1-n1c(/C=C/c2ccc(O)cc2)nc2ccc(Br)cc2c1=O` [G3iB, 6-bromo-2-[(E)-2-(4-hydroxyphenyl)ethenyl]-3-(2-methoxyphenyl)quinazolin-4(3H)-one], the IC50 is 12.7 ± 2.3 µM. The same measure, in the same setting: with `O=C(Nc1cccc(Cl)c1)c1cccc(NC(=O)c2cccc([N+](=O)[O-])c2)c1` [G3iE, N-{3-[(3-chloroanilino)carbonyl]phenyl}-3-nitrobenzamide] the figure was 12.4 ± 2.5 µM. On to `Cc1ccccc1CN(Cc1nnc(C(C)(C)C)o1)c1ccc2nc(O)[nH]c2c1` [G3iF], for which the “Potency for GLUT4 relative to GLUT3 (higher for GLUT4)” value was “~ fivefold” and the IC50 was determined as 6.94 ± 1.37 µM. On to `Cc1cccnc1OC1CCN(c2cc(N3CCCC3CO)ncn2)CC1` (stereo not shown) [G3iC], for which the IC50 came out at 25.6 ± 6.6 µM.

By Ki is commonly meant the dissociation constant of the complex between target and ligand, obtained from inhibition or displacement. For `Cc1cc(NC(=O)CCC2Cc3ccccc3NC2=O)nc(-c2ccccc2)n1` (stereo not shown) [G3iD], the “Potency for GLUT4 relative to GLUT3 (higher for GLUT4)” value is recorded as “~ fivefold” and the IC50 was 3.88 ± 0.57 µM. The Ki (2.5, 5 and 10 mM glucose, 0, 4 and 8 µM G3iD, read-out: Ki for GLUT4 inhibition (Dixon plot)) is 2.65 µM and ~2.7 µM. For the same compound, the “Inhibition mode in GLUT4” value (Dixon plot, versus glucose) is listed as “competitive with glucose; also recorded: competitive inhibitor; also recorded: competitive inhibition mode”. For `CC(=O)Nc1ccc(S(=O)(=O)Nc2ccc(Nc3cc(N(C)C)nc(C)n3)cc2)cc1` [G3iA, N-(4-{[(4-{[6-(dimethylamino)-2-methylpyrimidin-4-yl]amino}phenyl)amino]sulfonyl}phenyl)acetamide], the IC50 is over 50 µM.
